Test [1] has as its system FAM-BCL-2-TAMRA (DNA, G4) GGGCGCGGGAGGAATTGGGCGGG
Nature of the test: FRET melting. Particulars: K+ 60 mM (potassium cacodylate); pH 7.4, 2 µM compound, 0.2 µM DNA.

For test [2], the system named is BCL-2 (DNA, G4) GGGCGCGGGAGGAATTGGGCGGG
Nature of the test: fluorescence titration (ligand emission). The note with it: K+ 60 mM (potassium cacodylate); pH 7.4, room temperature, 2.5 µM TBP2, Hill-1 fit, apparent.

The subject of test [3] is c-KIT2 (DNA, G4) GGGCGGGCGCTAGGGAGGGG
Nature of the test: fluorescence titration (ligand emission). Particulars: K+ 60 mM (potassium cacodylate); pH 7.4, room temperature, 2.5 µM TBP2, Hill-1 fit, apparent.

Test [4] concerns h-TELO (DNA, G4) TTGGGTTAGGGTTAGGGATTAGGGA
Nature of the test: fluorescence titration (ligand emission). Particulars: K+ 60 mM (potassium cacodylate); pH 7.4, room temperature, 2.5 µM TBP2, Hill-1 fit, apparent.

Test [5] has as its system c-KIT1 (DNA, G4) GGGAGGGCGCTGGGAGGAGGG
Nature of the test: fluorescence titration (ligand emission). The note with it: K+ 60 mM (potassium cacodylate); pH 7.4, room temperature, 2.5 µM TBP2, Hill-1 fit, apparent.

Test [6] has as its system c-MYC22 (NMR) (DNA, G4) TGAGGGTGGGTAGGGTGGGTAA
Nature of the test: 1D 1H NMR titration. Particulars: K+ 100 mM; 25 mM Tris-HCl, pH 7.4, 100 µM DNA, 5-7.5% d6-DMSO.

Test [7] relates to FAM-c-KIT1-TAMRA (DNA, G4) GGGAGGGCGCTGGGAGGAGGG
As to the kind of experiment: FRET melting. The note with it: K+ 60 mM (potassium cacodylate); pH 7.4, 2 µM compound, 0.2 µM DNA.

Test [8] deals with FAM-c-KIT2-TAMRA (DNA, G4) GGGCGGGCGCTAGGGAGGGG
Nature of the test: FRET melting. Particulars: K+ 60 mM (potassium cacodylate); pH 7.4, 2 µM compound, 0.2 µM DNA.

Structures are written as SMILES.

Take `CN(C)CCCNC(=O)c1csc(NC(=O)c2csc(NC(=O)CCCc3cn(CCNC(=O)c4csc(NC(=O)c5csc(N)n5)n4)nn3)n2)n1`: the ΔTM in test [1] was found to be 3.8 ± 0.2 °C; in test [7] it was 1.3 ± 0.1 °C; in test [8], 4.1 ± 0.2 °C. Moreover, the Kd in test [2] came out at 10.2 µM; in test [3], 9.2 µM; in test [4], 8.2 µM; in test [5] it was 9.5 µM. The binding entry in test [6] was “yes”.
As to `CN(C)CCCNC(=O)c1csc(NC(=O)c2csc(NC(=O)CCCc3cn(CCNC(=O)c4csc(NC(=O)c5csc(NC(=O)OC(C)(C)C)n5)n4)nn3)n2)n1`, the ΔTM in test [1] worked out at 1 ± 0 °C; in test [7], 0 °C; in test [8], 0.5 ± 0 °C.
